Reference: patent US20030212254A1, “Use of an anion exchange resin (emp-7) as solid support for peptide synthesis and affinity chromatography” (priority 1999, published 2003)

Tested on: monoclonal antibody specific for (NANP)3 / recombinant protein containing the repetitive domain (NANP)n interaction
Experiment: Inhibition ELISA: inhibition of the monoclonal antibody-recombinant protein interaction
Format: binding, mouse
Conditions: 2000 to 3,9 μg/ml peptide or peptide-resin; 2 h at room temperature; absorbance at 492 nm; FIG. 6
Description: In brief, the designed immunological experiment encompassed the following steps: the purified recombinant protein containing the repetitive domain (NANP)n of the circunsporozoite form of Plasmodium falciparum (v.g. Cell, 70, 1021-1033, [1992]) was added to Elisa's plate (200 ng/well) and maintained overnight at room temperature. After 3 washes with phosphate buffer containing 0,05% Tween-20, the plates were treated at 37° C. with PBS containing 5% disnatured milk and 1% serum bovine albumin. To calculate the degree of interaction of this recombinant protein with its antibody, the plates were treated with a specific monoclonal antibody for the (NANP)3 sequence obtained according to the reference in Science 228, 1436-1440 (1985), in a final concentration of 20 ng/ml. […] After 1 h of incubation at room temperature, the excess of labeled antibody was removed during the washings and the calorimetric reaction with o-phenilenediamine was developed and read at 492 nm. […]
100 μl of PBS were added to 2000 μg/ml to 3,9 μg/ml of free peptide (acetyl-NANP)3 or of {[(acetil-NANP)3]4-Eac4-(Lys)2-Lys-DEAE-Sephadex A50}resin. […] The absorbance of solutions was measured at 492 nm and the percentage of inhibition of this interaction antibody-recombinant protein induced by peptide-resin, resin or peptide was calculated according to the equation: […]

acetyl-(NANP)3 [free (acetyl-NANP)3]
inhibition of the antibody-recombinant protein interaction: highest inhibition
